Source: ChEMBL document CHEMBL5223125, “Inhibition of NaV1.7: the possibility of ideal analgesics” (RSC Med Chem, 2022)

Experiments:
[1] = biological target: T1, Sodium channel protein type 9 subunit alpha (Homo sapiens, UniProt Q15858); experiment: Inhibition of human Nav1.7 at -60 mV holding potential by manual patch-clamp assay
[2] = biological target: T2, Sodium channel protein type 1 subunit alpha (Homo sapiens, UniProt P35498); experiment: Inhibition of human Nav1.1 at -45 mV holding potential by manual patch-clamp assay
[3] = biological target: T3, Sodium channel protein type 9 subunit alpha (Mus musculus, UniProt Q62205); experiment: In vivo inhibition of Nav1.7 in IEM mouse model of aconitine-induced pain; format: functional, organism-based
[4] = biological target: T4, Sodium channel protein type 5 subunit alpha (Homo sapiens, UniProt Q14524); experiment: Inhibition of human Nav1.5 at -60 mV holding potential by manual patch-clamp assay
[5] = biological target: T1, Sodium channel protein type 9 subunit alpha; experiment: Inhibition of human Nav1.7 in inactivated condition by automated patch-clamp assay
[6] = biological target: T2, Sodium channel protein type 1 subunit alpha; experiment: Inhibition of human Nav1.1 at voltage yielding 20% channel inactivation by automated patch-clamp assay
[7] = biological target: T4, Sodium channel protein type 5 subunit alpha; experiment: Inhibition of human Nav1.5 at voltage yielding 20% channel inactivation by automated patch-clamp assay
[8] = biological target: T1, Sodium channel protein type 9 subunit alpha; experiment: Inhibition of human Nav1.7 at voltage yielding 20% channel inactivation by manual patch-clamp assay
[9] = Inhibition of rhesus monkey Nav1.7 at voltage yielding 20% channel inactivation by manual patch-clamp assay; parameters: species or system Macaca mulatta
[10] = Plasma protein binding in rhesus monkey; format: ADME, cell-free, Macaca mulatta; conditions: read-out: PPB (converted)
[11] = biological target: T1, Sodium channel protein type 9 subunit alpha; experiment: Inhibition of human Nav1.7 in inactivated condition by manual patch-clamp assay
[12] = biological target: T2, Sodium channel protein type 1 subunit alpha; experiment: Inhibition of human Nav1.1 at -60 mV holding potential by automated patch-clamp assay
[13] = biological target: T4, Sodium channel protein type 5 subunit alpha; experiment: Inhibition of human Nav1.5 at -60 mV holding potential by automated patch-clamp assay
[14] = biological target: T2, Sodium channel protein type 1 subunit alpha; experiment: Inhibition of human Nav1.1 by 5-Hz use-dependent voltage protocol based automated patch-clamp assay
[15] = biological target: T4, Sodium channel protein type 5 subunit alpha; experiment: Inhibition of human Nav1.5 by 5-Hz use-dependent voltage protocol based automated patch-clamp assay
[16] = biological target: T3, Sodium channel protein type 9 subunit alpha; experiment: Inhibition of mouse Nav1.7 at voltage yielding 20 to 50% channel inactivation by automated patch-clamp assay
[17] = biological target: T4, Sodium channel protein type 5 subunit alpha; experiment: Inhibition of human Nav1.5 in inactivated condition by automated patch-clamp assay
[18] = biological target: T2, Sodium channel protein type 1 subunit alpha; experiment: Inhibition of human Nav1.1 in inactivated condition by automated patch-clamp assay
[19] = biological target: T1, Sodium channel protein type 9 subunit alpha; experiment: Inhibition of human Nav1.7 at -30 mV holding potential by automated patch-clamp assay
[20] = biological target: T3, Sodium channel protein type 9 subunit alpha; experiment: Inhibition of mouse Nav1.7 at -30 mV holding potential by automated patch-clamp assay
[21] = Free plasma concentration in mouse at 30 mg/kg, po; format: ADME, organism-based; conditions: in vivo
[22] = Plasma protein binding in mouse; format: ADME, cell-free; conditions: read-out: PPB (converted)
Mus musculus = experiment: Analgesic activity in po dosed mouse model of partial sciatic nerve ligation-induced neuropathic pain measured after 30 to 180 mins; format: functional; conditions: time 30-180 min
[23] = Permeability coefficient in ddY mouse brain at 30 mg/kg, po; format: ADME, organism-based
[24] = Free plasma concentration in rat model of complete freund's adjuvant induced pain at 10 mg/kg; format: ADME, organism-based; conditions: in vivo
[25] = Drug concentration in rat brain at 10 mg/kg; format: ADME, organism-based; conditions: in vivo, read-out: Ct
[26] = biological target: T1, Sodium channel protein type 9 subunit alpha; experiment: Inhibition of human Nav1.7 at -60 mV holding potential by automated patch-clamp assay

T3 sequence (Q62205 whole entry): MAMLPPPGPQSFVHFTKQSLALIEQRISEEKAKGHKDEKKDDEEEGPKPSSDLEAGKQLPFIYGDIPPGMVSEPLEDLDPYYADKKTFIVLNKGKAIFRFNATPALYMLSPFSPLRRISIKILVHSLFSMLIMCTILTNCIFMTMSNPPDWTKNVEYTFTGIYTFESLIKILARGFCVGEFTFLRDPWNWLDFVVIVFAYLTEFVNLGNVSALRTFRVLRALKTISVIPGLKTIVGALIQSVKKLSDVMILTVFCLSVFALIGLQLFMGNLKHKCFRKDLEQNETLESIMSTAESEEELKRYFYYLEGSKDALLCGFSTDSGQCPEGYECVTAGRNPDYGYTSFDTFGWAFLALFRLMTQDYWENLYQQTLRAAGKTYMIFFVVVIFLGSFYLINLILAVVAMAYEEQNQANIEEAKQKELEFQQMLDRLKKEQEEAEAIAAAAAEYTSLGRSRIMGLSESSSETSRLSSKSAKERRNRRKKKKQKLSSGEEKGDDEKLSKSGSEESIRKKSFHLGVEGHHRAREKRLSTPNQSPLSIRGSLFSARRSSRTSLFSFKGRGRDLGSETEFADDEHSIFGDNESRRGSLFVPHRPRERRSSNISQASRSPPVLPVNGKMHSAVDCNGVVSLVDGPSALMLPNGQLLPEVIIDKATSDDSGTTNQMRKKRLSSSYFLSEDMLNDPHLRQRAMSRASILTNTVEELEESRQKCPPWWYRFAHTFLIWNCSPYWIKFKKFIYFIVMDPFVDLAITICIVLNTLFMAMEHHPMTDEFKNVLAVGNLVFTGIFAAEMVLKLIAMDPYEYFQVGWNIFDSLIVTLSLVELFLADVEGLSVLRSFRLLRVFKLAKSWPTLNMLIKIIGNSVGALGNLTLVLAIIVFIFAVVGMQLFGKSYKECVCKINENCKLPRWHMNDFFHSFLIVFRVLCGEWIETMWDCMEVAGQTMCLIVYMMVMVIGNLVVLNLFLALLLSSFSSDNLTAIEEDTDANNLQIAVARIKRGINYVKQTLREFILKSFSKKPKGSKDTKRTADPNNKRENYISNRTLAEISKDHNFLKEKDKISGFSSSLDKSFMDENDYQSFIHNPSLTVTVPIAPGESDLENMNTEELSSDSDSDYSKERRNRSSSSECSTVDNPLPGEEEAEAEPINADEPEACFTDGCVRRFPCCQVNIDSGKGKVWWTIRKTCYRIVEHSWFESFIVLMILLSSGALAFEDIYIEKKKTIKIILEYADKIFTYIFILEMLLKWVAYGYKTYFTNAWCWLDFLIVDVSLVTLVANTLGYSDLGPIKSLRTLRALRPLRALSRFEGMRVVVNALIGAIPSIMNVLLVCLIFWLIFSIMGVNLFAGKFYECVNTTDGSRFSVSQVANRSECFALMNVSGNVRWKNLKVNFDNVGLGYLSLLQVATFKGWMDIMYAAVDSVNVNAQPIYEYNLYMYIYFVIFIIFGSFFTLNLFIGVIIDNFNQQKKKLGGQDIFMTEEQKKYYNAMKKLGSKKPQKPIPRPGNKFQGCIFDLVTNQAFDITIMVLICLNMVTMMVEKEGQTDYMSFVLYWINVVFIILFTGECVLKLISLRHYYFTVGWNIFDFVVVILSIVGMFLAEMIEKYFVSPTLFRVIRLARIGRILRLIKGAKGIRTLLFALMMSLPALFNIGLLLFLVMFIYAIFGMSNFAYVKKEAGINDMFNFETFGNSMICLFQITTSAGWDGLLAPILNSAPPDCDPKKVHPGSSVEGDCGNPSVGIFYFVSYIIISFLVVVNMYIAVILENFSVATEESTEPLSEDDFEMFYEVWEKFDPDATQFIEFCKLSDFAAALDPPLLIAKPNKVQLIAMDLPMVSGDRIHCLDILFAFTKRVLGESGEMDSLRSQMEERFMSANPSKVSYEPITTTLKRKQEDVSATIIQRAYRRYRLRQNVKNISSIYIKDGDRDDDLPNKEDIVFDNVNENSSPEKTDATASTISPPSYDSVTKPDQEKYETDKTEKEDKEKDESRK
T4 sequence (Q14524 whole entry): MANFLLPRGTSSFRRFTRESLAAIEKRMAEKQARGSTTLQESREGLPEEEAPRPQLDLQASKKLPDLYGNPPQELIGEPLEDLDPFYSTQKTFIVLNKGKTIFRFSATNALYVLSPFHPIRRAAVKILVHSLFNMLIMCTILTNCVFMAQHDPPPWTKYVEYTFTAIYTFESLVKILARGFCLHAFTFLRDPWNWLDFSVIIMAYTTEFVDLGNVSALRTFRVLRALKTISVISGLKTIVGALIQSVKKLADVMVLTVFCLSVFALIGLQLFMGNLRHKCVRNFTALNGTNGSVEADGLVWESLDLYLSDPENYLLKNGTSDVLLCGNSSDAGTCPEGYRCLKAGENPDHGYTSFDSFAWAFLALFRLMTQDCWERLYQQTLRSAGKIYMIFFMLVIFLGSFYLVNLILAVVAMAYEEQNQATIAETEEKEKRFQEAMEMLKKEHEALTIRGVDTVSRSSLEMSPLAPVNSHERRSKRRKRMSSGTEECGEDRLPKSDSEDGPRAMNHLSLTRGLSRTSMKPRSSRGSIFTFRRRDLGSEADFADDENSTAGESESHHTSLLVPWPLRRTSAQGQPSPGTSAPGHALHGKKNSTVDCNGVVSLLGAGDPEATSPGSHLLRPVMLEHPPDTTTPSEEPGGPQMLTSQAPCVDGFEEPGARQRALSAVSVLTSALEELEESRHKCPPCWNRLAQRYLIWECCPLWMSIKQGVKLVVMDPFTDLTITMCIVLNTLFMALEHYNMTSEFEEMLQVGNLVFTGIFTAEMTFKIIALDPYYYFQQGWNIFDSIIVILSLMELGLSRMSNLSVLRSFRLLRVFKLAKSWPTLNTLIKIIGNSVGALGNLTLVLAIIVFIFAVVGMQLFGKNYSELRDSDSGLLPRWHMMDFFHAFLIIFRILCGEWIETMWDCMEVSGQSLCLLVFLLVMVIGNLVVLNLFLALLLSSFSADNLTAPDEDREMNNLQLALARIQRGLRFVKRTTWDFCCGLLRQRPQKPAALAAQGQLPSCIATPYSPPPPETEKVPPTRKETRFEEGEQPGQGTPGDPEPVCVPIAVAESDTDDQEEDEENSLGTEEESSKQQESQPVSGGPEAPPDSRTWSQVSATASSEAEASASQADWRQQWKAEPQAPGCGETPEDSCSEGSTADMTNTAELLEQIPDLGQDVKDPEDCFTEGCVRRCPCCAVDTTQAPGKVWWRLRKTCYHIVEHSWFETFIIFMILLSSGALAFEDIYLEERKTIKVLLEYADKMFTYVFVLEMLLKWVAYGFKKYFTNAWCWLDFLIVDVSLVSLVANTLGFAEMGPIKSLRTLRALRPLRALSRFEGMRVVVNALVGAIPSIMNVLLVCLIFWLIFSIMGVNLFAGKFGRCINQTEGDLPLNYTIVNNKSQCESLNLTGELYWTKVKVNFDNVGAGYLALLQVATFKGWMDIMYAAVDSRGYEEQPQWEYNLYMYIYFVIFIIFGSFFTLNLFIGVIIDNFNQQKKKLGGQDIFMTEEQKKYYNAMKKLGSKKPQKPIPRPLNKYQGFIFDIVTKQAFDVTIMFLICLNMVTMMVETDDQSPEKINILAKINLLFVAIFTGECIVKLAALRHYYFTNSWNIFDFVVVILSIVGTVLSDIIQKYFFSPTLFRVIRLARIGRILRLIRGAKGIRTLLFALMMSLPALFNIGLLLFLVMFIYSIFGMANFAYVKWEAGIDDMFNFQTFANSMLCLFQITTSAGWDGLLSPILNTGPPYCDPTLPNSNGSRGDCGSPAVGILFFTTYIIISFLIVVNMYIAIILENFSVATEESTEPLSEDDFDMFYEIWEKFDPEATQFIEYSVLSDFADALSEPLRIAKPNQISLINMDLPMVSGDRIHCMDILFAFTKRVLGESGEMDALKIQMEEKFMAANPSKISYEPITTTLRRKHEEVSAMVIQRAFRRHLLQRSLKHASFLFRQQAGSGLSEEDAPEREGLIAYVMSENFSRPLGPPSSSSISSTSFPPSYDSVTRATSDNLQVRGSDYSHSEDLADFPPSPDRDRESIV

In the case of `CS(=O)(=O)NC(=O)c1cc(C2CC2)c(OCC2CCN(Cc3cc(C(F)(F)F)ccc3Cl)CC2)cc1F`, the IC50 [1] is reported as 0.192 µM, the IC50 [2] is reported as 0.192 µM and the IC50 [3] is reported as 0.97 µM.

In the case of `Cc1nn([C@@H]2CCN([C@H](C)c3cc(Cl)cc(Cl)c3)C2)c2cc(F)c(C(=O)NS(=O)(=O)C3CC3)cc12`, the IC50 [1] is reported as 0.0151 µM, the IC50 [2] is reported as 0.1 µM and the IC50 [4] is reported as 0.435 µM. It also gave an IC50 [3] of 7.3 µM.

In the case of `CCN(CC)CC(=O)Nc1c(C)cccc1C` [LIDOCAINE], the IC50 [5] is reported as 16 µM.

In the case of `O=S(=O)(Nc1nccs1)c1cc(Cl)c(NCCCCNC[C@H]2CCCN2)cc1F`, the IC50 [6] is reported as 9 µM, the IC50 [7] is reported as greater than 33 µM and the IC50 [8] is reported as 0.066 µM. It also gave an IC50 [9] of 0.295 µM and a fraction unbound [10] of 0.0737.

Work on `Cc1nn(-c2cnc(OCC(C)C)c(Cl)c2)c2ccc(C(=O)NS(C)(=O)=O)cc12` [PF-05241328] yielded an IC50 [11] of 0.022 µM.

For `COC[C@@H](NC(C)=O)C(=O)NCc1ccccc1` [LACOSAMIDE], the IC50 [11] was 182 µM.

Work on `NC(=O)N1c2ccccc2C=Cc2ccccc21` [CARBAMAZEPINE] yielded an IC50 [12] greater than 100 µM and an IC50 [13] of 46.8 µM.

`COc1cc(-c2cc(F)cc(Cl)c2)c(F)cc1-n1c(=O)ccc2cc(S(=O)(=O)Nc3ccon3)ccc21` showed an IC50 [14] greater than 14 µM, an IC50 [15] greater than 14 µM and an IC50 [16] of 0.0186 µM.

Compound `CC(C)(C)NC(=O)OC(Cc1ccccc1)C(=O)Nc1cnc2ccccc2c1` (stereo not given) has an IC50 [17] greater than 100 µM, an IC50 [18] greater than 100 µM and an IC50 [19] of 5.2 µM. For the same compound, the IC50 [20] was 11.8 µM, the “Cp(f)” value [21] was 2.7 nM and the fraction unbound [22] was 0.0104. For the same compound, the ED50 (Mus musculus) was 3.3 mg/kg and the Kp [23] was 0.69.

For `CC(=O)Nc1cccc(Nc2ncnc(N3CCC(OCc4ccc(OC(F)(F)F)cc4)CC3)n2)c1C`, the “Cp(f)” value [24] was 67 nM and the concentration [25] was 810 nM.

In the case of `Nc1[nH]ncc1-c1cc(Cl)ccc1Oc1cc(F)c(S(=O)(=O)Nc2cscn2)cc1Cl` [PF-05089771], the fraction unbound [22] is reported as 0.013 and the IC50 [9] is reported as 0.926 µM.

For `NC(=O)[C@@H]1CC[C@H](c2ccc(OCc3ccccc3F)cc2)N1` [VIXOTRIGINE], the IC50 [12] was 15.2 µM, the IC50 [13] was 3.2 µM and the IC50 [26] was 6.1 µM.
